{"source": "the supplement of paper PMC10307832", "assay_in_all_cases": "relative viability (nuclei count vs DMSO), 5 days (fraction); higher = more cells survive", "key": {"ChaGo-K-1": {"system": "ChaGo-K-1", "in_short": "(§1)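 Each reported value is a median over duplicate plates. It expresses relative viability: treated-well nuclei count divided by vehicle-well nuclei count. Lung cancer cell lines in 1536-well plates were dosed by pin tool a day after seeding, alone with one drug or with a fixed anchor-drug dose plus five library-drug doses (not always all listed) in √10 steps, and nuclei were counted after 5 days.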"}, "EMC-BAC-2": {"system": "EMC-BAC-2", "in_short": "as §1"}, "LCLC-97TM1": {"system": "LCLC-97TM1", "in_short": "as §1"}, "LXF-289": {"system": "LXF-289", "in_short": "as §1"}, "NCI-H1395": {"system": "NCI-H1395", "in_short": "as §1"}, "NCI-H1651": {"system": "NCI-H1651", "in_short": "as §1"}, "NCI-H1734": {"system": "NCI-H1734", "in_short": "as §1"}, "NCI-H1793": {"system": "NCI-H1793", "in_short": "as §1"}, "NCI-H1915": {"system": "NCI-H1915", "in_short": "as §1"}, "NCI-H1944": {"system": "NCI-H1944", "in_short": "as §1"}, "NCI-H2023": {"system": "NCI-H2023", "in_short": "as §1"}, "NCI-H2087": {"system": "NCI-H2087", "in_short": "as §1"}, "NCI-H2126": {"system": "NCI-H2126", "in_short": "as §1"}, "NCI-H2405": {"system": "NCI-H2405", "in_short": "as §1"}, "NCI-H3122": {"system": "NCI-H3122", "in_short": "as §1"}, "NCI-H322M": {"system": "NCI-H322M", "in_short": "as §1"}, "NCI-H441": {"system": "NCI-H441", "in_short": "as §1"}, "NCI-H522": {"system": "NCI-H522", "in_short": "as §1"}, "NCI-H596": {"system": "NCI-H596", "in_short": "as §1"}, "NCI-H650": {"system": "NCI-H650", "in_short": "as §1"}, "NCI-H661": {"system": "NCI-H661", "in_short": "as §1"}, "NCI-H838": {"system": "NCI-H838", "in_short": "as §1"}, "PC-14": {"system": "PC-14", "in_short": "as §1"}, "SW 1573": {"system": "SW 1573", "in_short": "as §1"}, "UMC-11": {"system": "UMC-11", "in_short": "as §1"}}, "data": [{"smiles": "Nc1cccc2c1CN(C1CCC(=O)NC1=O)C2=O", "note": "(stereo unspecified) [Lenalidomide] + CC(=O)Nc1cccc(-n2c(=O)n(C3CC3)c(=O)c3c(Nc4ccc(I)cc4F)n(C)c(=O)c(C)c32)c1 [Trametinib] (partner 0.02 µM)", "values": [{"measurement": "relative viability", "setting": "ChaGo-K-1; first compound 0.253 µM", "value": 0.925}, {"measurement": "relative viability", "setting": "ChaGo-K-1; first compound 0.8 µM", "value": 0.897}, {"measurement": "relative viability", "setting": "ChaGo-K-1; first compound 2.53 µM", "value": 1.02}, {"measurement": "relative viability", "setting": "ChaGo-K-1; first compound 8 µM", "value": 0.904}, {"measurement": "relative viability", "setting": "EMC-BAC-2; first compound 0.253 µM", "value": 0.888}, {"measurement": "relative viability", "setting": "EMC-BAC-2; first compound 0.8 µM", "value": 0.848}, {"measurement": "relative viability", "setting": "EMC-BAC-2; first compound 2.53 µM", "value": 0.922}, {"measurement": "relative viability", "setting": "EMC-BAC-2; first compound 8 µM", "value": 0.747}, {"measurement": "relative viability", "setting": "LCLC-97TM1; first compound 0.253 µM", "value": 0.183}, {"measurement": "relative viability", "setting": "LCLC-97TM1; first compound 0.8 µM", "value": 0.239}, {"measurement": "relative viability", "setting": "LCLC-97TM1; first compound 2.53 µM", "value": 0.212}, {"measurement": "relative viability", "setting": "LCLC-97TM1; first compound 8 µM", "value": 0.159}, {"measurement": "relative viability", "setting": "LXF-289; first compound 0.253 µM", "value": 0.661}, {"measurement": "relative viability", "setting": "LXF-289; first compound 0.8 µM", "value": 0.604}, {"measurement": "relative viability", "setting": "LXF-289; first compound 2.53 µM", "value": 0.671}, {"measurement": "relative viability", "setting": "LXF-289; first compound 8 µM", "value": 0.691}, {"measurement": "relative viability", "setting": "NCI-H1395; first compound 0.253 µM", "value": 0.988}, {"measurement": "relative viability", "setting": "NCI-H1395; first compound 2.53 µM", "value": 1.1}, {"measurement": "relative viability", "setting": "NCI-H1395; first compound 8 µM", "value": 0.929}, {"measurement": "relative viability", "setting": "NCI-H1651; first compound 0.253 µM", "value": 0.79}, {"measurement": "relative viability", "setting": "NCI-H1651; first compound 0.8 µM", "value": 0.932}, {"measurement": "relative viability", "setting": "NCI-H1651; first compound 2.53 µM", "value": 0.902}, {"measurement": "relative viability", "setting": "NCI-H1651; first compound 8 µM", "value": 0.82}, {"measurement": "relative viability", "setting": "NCI-H1734; first compound 0.253 µM", "value": 0.69}, {"measurement": "relative viability", "setting": "NCI-H1734; first compound 0.8 µM", "value": 0.606}, {"measurement": "relative viability", "setting": "NCI-H1734; first compound 2.53 µM", "value": 0.702}, {"measurement": "relative viability", "setting": "NCI-H1734; first compound 8 µM", "value": 0.605}, {"measurement": "relative viability", "setting": "NCI-H1793; first compound 0.253 µM", "value": 0.458}, {"measurement": "relative viability", "setting": "NCI-H1793; first compound 2.53 µM", "value": 0.474}, {"measurement": "relative viability", "setting": "NCI-H1793; first compound 8 µM", "value": 0.451}, {"measurement": "relative viability", "setting": "NCI-H1915; first compound 0.253 µM", "value": 0.306}, {"measurement": "relative viability", "setting": "NCI-H1915; first compound 0.8 µM", "value": 0.319}, {"measurement": "relative viability", "setting": "NCI-H1915; first compound 2.53 µM", "value": 0.323}, {"measurement": "relative viability", "setting": "NCI-H1915; first compound 8 µM", "value": 0.283}, {"measurement": "relative viability", "setting": "NCI-H1944; first compound 0.253 µM", "value": 0.385}, {"measurement": "relative viability", "setting": "NCI-H1944; first compound 2.53 µM", "value": 0.427}, {"measurement": "relative viability", "setting": "NCI-H1944; first compound 8 µM", "value": 0.395}, {"measurement": "relative viability", "setting": "NCI-H2023; first compound 0.253 µM", "value": 0.554}, {"measurement": "relative viability", "setting": "NCI-H2023; first compound 0.8 µM", "value": 0.584}, {"measurement": "relative viability", "setting": "NCI-H2023; first compound 2.53 µM", "value": 0.444}, {"measurement": "relative viability", "setting": "NCI-H2023; first compound 8 µM", "value": 0.504}, {"measurement": "relative viability", "setting": "NCI-H2087; first compound 0.253 µM", "value": 0.191}, {"measurement": "relative viability", "setting": "NCI-H2087; first compound 2.53 µM", "value": 0.28}, {"measurement": "relative viability", "setting": "NCI-H2087; first compound 8 µM", "value": 0.186}, {"measurement": "relative viability", "setting": "NCI-H2126; first compound 0.253 µM", "value": 0.572}, {"measurement": "relative viability", "setting": "NCI-H2126; first compound 0.8 µM", "value": 0.526}, {"measurement": "relative viability", "setting": "NCI-H2126; first compound 2.53 µM", "value": 0.597}, {"measurement": "relative viability", "setting": "NCI-H2126; first compound 8 µM", "value": 0.462}, {"measurement": "relative viability", "setting": "NCI-H2405; first compound 0.253 µM", "value": 0.648}, {"measurement": "relative viability", "setting": "NCI-H2405; first compound 0.8 µM", "value": 0.657}, {"measurement": "relative viability", "setting": "NCI-H2405; first compound 2.53 µM", "value": 0.654}, {"measurement": "relative viability", "setting": "NCI-H2405; first compound 8 µM", "value": 0.546}, {"measurement": "relative viability", "setting": "NCI-H3122; first compound 0.253 µM", "value": 0.234}, {"measurement": "relative viability", "setting": "NCI-H3122; first compound 0.8 µM", "value": 0.246}, {"measurement": "relative viability", "setting": "NCI-H3122; first compound 2.53 µM", "value": 0.253}, {"measurement": "relative viability", "setting": "NCI-H3122; first compound 8 µM", "value": 0.205}, {"measurement": "relative viability", "setting": "NCI-H322M; first compound 0.253 µM", "value": 0.507}, {"measurement": "relative viability", "setting": "NCI-H322M; first compound 0.8 µM", "value": 0.527}, {"measurement": "relative viability", "setting": "NCI-H322M; first compound 2.53 µM", "value": 0.508}, {"measurement": "relative viability", "setting": "NCI-H322M; first compound 8 µM", "value": 0.511}, {"measurement": "relative viability", "setting": "NCI-H441; first compound 0.253 µM", "value": 0.484}, {"measurement": "relative viability", "setting": "NCI-H441; first compound 0.8 µM", "value": 0.258}, {"measurement": "relative viability", "setting": "NCI-H441; first compound 2.53 µM", "value": 0.623}, {"measurement": "relative viability", "setting": "NCI-H441; first compound 8 µM", "value": 0.387}, {"measurement": "relative viability", "setting": "NCI-H522; first compound 0.253 µM", "value": 0.813}, {"measurement": "relative viability", "setting": "NCI-H522; first compound 0.8 µM", "value": 0.803}, {"measurement": "relative viability", "setting": "NCI-H522; first compound 2.53 µM", "value": 0.725}, {"measurement": "relative viability", "setting": "NCI-H522; first compound 8 µM", "value": 0.623}, {"measurement": "relative viability", "setting": "NCI-H596; first compound 0.253 µM", "value": 0.73}, {"measurement": "relative viability", "setting": "NCI-H596; first compound 0.8 µM", "value": 0.83}, {"measurement": "relative viability", "setting": "NCI-H596; first compound 2.53 µM", "value": 0.938}, {"measurement": "relative viability", "setting": "NCI-H596; first compound 8 µM", "value": 0.766}, {"measurement": "relative viability", "setting": "NCI-H650; first compound 0.253 µM", "value": 0.983}, {"measurement": "relative viability", "setting": "NCI-H650; first compound 0.8 µM", "value": 1}, {"measurement": "relative viability", "setting": "NCI-H650; first compound 2.53 µM", "value": 0.963}, {"measurement": "relative viability", "setting": "NCI-H650; first compound 8 µM", "value": 0.891}, {"measurement": "relative viability", "setting": "NCI-H661; first compound 0.253 µM", "value": 0.529}, {"measurement": "relative viability", "setting": "NCI-H661; first compound 0.8 µM", "value": 0.593}, {"measurement": "relative viability", "setting": "NCI-H661; first compound 2.53 µM", "value": 0.591}, {"measurement": "relative viability", "setting": "NCI-H661; first compound 8 µM", "value": 0.533}, {"measurement": "relative viability", "setting": "NCI-H838; first compound 0.253 µM", "value": 0.517}, {"measurement": "relative viability", "setting": "NCI-H838; first compound 0.8 µM", "value": 0.463}, {"measurement": "relative viability", "setting": "NCI-H838; first compound 2.53 µM", "value": 0.625}, {"measurement": "relative viability", "setting": "NCI-H838; first compound 8 µM", "value": 0.378}, {"measurement": "relative viability", "setting": "PC-14; first compound 0.253 µM", "value": 0.839}, {"measurement": "relative viability", "setting": "PC-14; first compound 0.8 µM", "value": 0.722}, {"measurement": "relative viability", "setting": "PC-14; first compound 2.53 µM", "value": 0.981}, {"measurement": "relative viability", "setting": "PC-14; first compound 8 µM", "value": 0.779}, {"measurement": "relative viability", "setting": "SW 1573; first compound 0.253 µM", "value": 0.583}, {"measurement": "relative viability", "setting": "SW 1573; first compound 0.8 µM", "value": 0.67}, {"measurement": "relative viability", "setting": "SW 1573; first compound 2.53 µM", "value": 0.583}, {"measurement": "relative viability", "setting": "SW 1573; first compound 8 µM", "value": 0.596}, {"measurement": "relative viability", "setting": "UMC-11; first compound 0.253 µM", "value": 0.514}, {"measurement": "relative viability", "setting": "UMC-11; first compound 0.8 µM", "value": 0.449}, {"measurement": "relative viability", "setting": "UMC-11; first compound 2.53 µM", "value": 0.885}, {"measurement": "relative viability", "setting": "UMC-11; first compound 8 µM", "value": 0.472}]}]}
